Key:
Type in all cases: in vivo
[1] = tested on: lambsquarters (Chenopodium album, CHEAL); assay: Pre-emerge test, greenhouse herbicide activity screening; conditions: rated 14 days after application, 0 = no damage, 100 = complete death
Procedure, shortened: (§1)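 Sandy loam pots; pre-emerge: sown 1 d pre-spray, surface-watered after, then bottom-watered. Post-emerge: sown 8–21 d before, 2–3 leaf stage, + 0.25% v/v NIS, bottom-watered. Acetone, 187 l/ha track spray, 15–1000 g ai/ha. 0–100 injury score, day 14.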

[2] = tested on: barnyardgrass (Echinochloa crus-galli, ECHCG); assay: as above; conditions: rated 14 days after application, 0 = no damage, 100 = complete death
Procedure, shortened: as §1

[3] = tested on: green foxtail (Setaria viridis, SETVI); assay: as above; conditions: rated 14 days after application, 0 = no damage, 100 = complete death
Procedure, shortened: as §1

[4] = tested on: velvetleaf (Abutilon theophrasti, ABUTH); assay: as above; conditions: rated 14 days after application, 0 = no damage, 100 = complete death
Procedure, shortened: as §1

[5] = tested on: large crabgrass (Digitaria sanguinalis, DIGSA); assay: as above; conditions: rated 14 days after application, 0 = no damage, 100 = complete death
Procedure, shortened: as §1

[6] = tested on: ivyleaf morningglory (Ipomoea hederacea, IPOHE); assay: as above; conditions: rated 14 days after application, 0 = no damage, 100 = complete death
Procedure, shortened: as §1

[7] = tested on: sicklepod (Cassia obtusifolia, CASOB); assay: as above; conditions: rated 14 days after application, 0 = no damage, 100 = complete death
Procedure, shortened: as §1

[8] = tested on: johnsongrass (Sorghum halepense, SORHA); assay: as above; conditions: rated 14 days after application, 0 = no damage, 100 = complete death
Procedure, shortened: as §1

[9] = tested on: lambsquarters (Chenopodium album, CHEAL); assay: Post-emerge test, greenhouse herbicide activity screening; conditions: post-emerge, 14 days after application, rating scale 0-100
Procedure, shortened: (§2)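 Plants grown in 10 cm pots of sandy loam mix received acetone-dissolved compounds through a moving flat-fan nozzle. Doses ranged from 15 to 1000 g ai/ha. Pre-emerge pots were seeded one day earlier, post-emerge pots 8–21 days earlier. Fourteen days on, each pot was graded 0–100 for damage.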

[10] = tested on: barnyardgrass (Echinochloa crus-galli, ECHCG); assay: as above; conditions: post-emerge, 14 days after application, rating scale 0-100
Procedure, shortened: as §2

[11] = tested on: redroot pigweed (Amaranthus retroflexus, AMARE); assay: as above; conditions: post-emerge, 14 days after application, rating scale 0-100
Procedure, shortened: as §2

[12] = tested on: green foxtail (Setaria viridis, SETVI); assay: as above; conditions: post-emerge, 14 days after application, rating scale 0-100
Procedure, shortened: as §2

[13] = tested on: velvetleaf (Abutilon theophrasti, ABUTH); assay: as above; conditions: post-emerge, 14 days after application, rating scale 0-100
Procedure, shortened: as §2

[14] = tested on: large crabgrass (Digitaria sanguinalis, DIGSA); assay: as above; conditions: post-emerge, 14 days after application, rating scale 0-100
Procedure, shortened: as §2

[15] = tested on: ivyleaf morningglory (Ipomoea hederacea, IPOHE); assay: as above; conditions: post-emerge, 14 days after application, rating scale 0-100
Procedure, shortened: as §2

[16] = tested on: sicklepod (Cassia obtusifolia, CASOB); assay: as above; conditions: post-emerge, 14 days after application, rating scale 0-100
Procedure, shortened: as §2

[17] = tested on: johnsongrass (Sorghum halepense, SORHA); assay: as above; conditions: post-emerge, 14 days after application, rating scale 0-100
Procedure, shortened: as §2

[18] = tested on: redroot pigweed (Amaranthus retroflexus, AMARE); assay: Pre-emerge test, greenhouse herbicide activity screening; conditions: rated 14 days after application, 0 = no damage, 100 = complete death
Procedure, shortened: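 Compounds in acetone were track-sprayed at 15-1000 g ai/ha (187 l/ha) on sandy loam pots: pre-emerge one day after seeding, post-emerge at 2-3 leaf stage with 0.25% v/v non-ionic surfactant. Phytotoxicity was rated 14 days later on a 0 (no damage) to 100 (complete death) scale.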

[19] = tested on: upland rice (Oryza sp., var. Tebonnet, RICE); assay: Post-emerge test, crop safety; conditions: post-emerge, 14 days after application, rating scale 0-100
Procedure, shortened: as §1

[20] = tested on: field corn (Zea mays L., var. Dekalb 535, CORN); assay: Post-emerge test, crop safety; conditions: post-emerge, 14 days after application, rating scale 0-100
Procedure, shortened: as §1

[21] = tested on: upland rice (Oryza sp., var. Tebonnet, RICE); assay: Pre-emerge test, crop safety; conditions: rated 14 days after application, 0 = no damage, 100 = complete death
Procedure, shortened: (§3)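 Visual ratings on a 0-100 scale (0 no damage, 100 all plants dead) were taken at 14 days after treatment. Rates of 15-1000 g ai/ha in acetone, 187 l/ha, were sprayed onto soil one day after planting (pre-emerge) or onto 2-3 leaf plants with 0.25% v/v surfactant (post-emerge).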

[22] = tested on: field corn (Zea mays L., var. Dekalb 535, CORN); assay: Pre-emerge test, crop safety; conditions: rated 14 days after application, 0 = no damage, 100 = complete death
Procedure, shortened: as §3

COc1c(Cl)cc(F)c(-n2c(=S)cc(C(F)(F)F)n(C)c2=O)c1NC(=S)c1ccc(F)cc1F [2-46]
90: Pre-emerge Herbicidal Activity, phytotoxicity rating (0-100), SETVI ([3]; 63 g ai/ha) | Pre-emerge Herbicidal Activity, phytotoxicity rating (0-100), SORHA ([8]; 250 g ai/ha) | Pre-emerge phytotoxicity rating (0-100), crop damage, CORN ([22]; 250 g ai/ha)
70: Pre-emerge Herbicidal Activity, phytotoxicity rating (0-100), DIGSA ([5]; 250 g ai/ha) | phytotoxicity rating AMARE ([11]; 250 g ai/ha) | Pre-emerge phytotoxicity rating (0-100), crop damage, RICE ([21]; 250 g ai/ha)
10: phytotoxicity rating CHEAL ([9]; 63 g ai/ha) | phytotoxicity rating ECHCG ([10]; 250 g ai/ha) | phytotoxicity rating RICE ([19]; 63 g ai/ha)
100: Pre-emerge Herbicidal Activity, phytotoxicity rating (0-100), CHEAL ([1]; 63 g ai/ha) | Pre-emerge Herbicidal Activity, phytotoxicity rating (0-100), CHEAL ([1]; 250 g ai/ha) | Pre-emerge Herbicidal Activity, phytotoxicity rating (0-100), SETVI ([3]; 250 g ai/ha) | Pre-emerge Herbicidal Activity, phytotoxicity rating (0-100), ABUTH ([4]; 250 g ai/ha) | Pre-emerge Herbicidal Activity, phytotoxicity rating (0-100), CASOB ([7]; 250 g ai/ha) | phytotoxicity rating ABUTH ([13]; 250 g ai/ha) | Pre-emerge Herbicidal Activity, phytotoxicity rating (0-100), AMARE ([18]; 63 g ai/ha) | Pre-emerge Herbicidal Activity, phytotoxicity rating (0-100), AMARE ([18]; 250 g ai/ha)
30: Pre-emerge Herbicidal Activity, phytotoxicity rating (0-100), DIGSA ([5]; 63 g ai/ha) | Pre-emerge Herbicidal Activity, phytotoxicity rating (0-100), CASOB ([7]; 63 g ai/ha) | Pre-emerge Herbicidal Activity, phytotoxicity rating (0-100), SORHA ([8]; 63 g ai/ha) | phytotoxicity rating AMARE ([11]; 63 g ai/ha) | phytotoxicity rating SETVI ([12]; 250 g ai/ha) | phytotoxicity rating RICE ([19]; 250 g ai/ha)
20: phytotoxicity rating IPOHE ([15]; 250 g ai/ha) | phytotoxicity rating CORN ([20]; 250 g ai/ha) | Pre-emerge phytotoxicity rating (0-100), crop damage, RICE ([21]; 63 g ai/ha)
60: Pre-emerge Herbicidal Activity, phytotoxicity rating (0-100), IPOHE ([6]; 250 g ai/ha)
0: Pre-emerge Herbicidal Activity, phytotoxicity rating (0-100), ECHCG ([2]; 63 g ai/ha) | Pre-emerge Herbicidal Activity, phytotoxicity rating (0-100), IPOHE ([6]; 63 g ai/ha) | phytotoxicity rating ECHCG ([10]; 63 g ai/ha) | phytotoxicity rating SETVI ([12]; 63 g ai/ha) | phytotoxicity rating DIGSA ([14]; 63 g ai/ha) | phytotoxicity rating DIGSA ([14]; 250 g ai/ha) | phytotoxicity rating IPOHE ([15]; 63 g ai/ha) | phytotoxicity rating CASOB ([16]; 63 g ai/ha) | phytotoxicity rating CASOB ([16]; 250 g ai/ha) | phytotoxicity rating SORHA ([17]; 63 g ai/ha) | phytotoxicity rating SORHA ([17]; 250 g ai/ha) | phytotoxicity rating CORN ([20]; 63 g ai/ha) | Pre-emerge phytotoxicity rating (0-100), crop damage, CORN ([22]; 63 g ai/ha)
50: Pre-emerge Herbicidal Activity, phytotoxicity rating (0-100), ECHCG ([2]; 250 g ai/ha) | Pre-emerge Herbicidal Activity, phytotoxicity rating (0-100), ABUTH ([4]; 63 g ai/ha) | phytotoxicity rating ABUTH ([13]; 63 g ai/ha)

COc1c(Cl)cc(F)c(-n2c(=O)cc(C(F)(F)F)n(C)c2=O)c1NC(=O)c1ccc2ccccc2c1 [2-75]
10: phytotoxicity rating ECHCG ([10]; 63 g ai/ha) | phytotoxicity rating CORN ([20]; 63 g ai/ha)
15: phytotoxicity rating CORN ([20]; 250 g ai/ha)
20: Pre-emerge Herbicidal Activity, phytotoxicity rating (0-100), ECHCG ([2]; 63 g ai/ha) | Pre-emerge Herbicidal Activity, phytotoxicity rating (0-100), IPOHE ([6]; 63 g ai/ha) | Pre-emerge Herbicidal Activity, phytotoxicity rating (0-100), SORHA ([8]; 63 g ai/ha) | phytotoxicity rating DIGSA ([14]; 250 g ai/ha) | phytotoxicity rating SORHA ([17]; 63 g ai/ha)
80: phytotoxicity rating SETVI ([12]; 250 g ai/ha) | phytotoxicity rating RICE ([19]; 250 g ai/ha) | Pre-emerge phytotoxicity rating (0-100), crop damage, RICE ([21]; 250 g ai/ha)
50: phytotoxicity rating ECHCG ([10]; 250 g ai/ha)
40: phytotoxicity rating SORHA ([17]; 250 g ai/ha)
70: Pre-emerge Herbicidal Activity, phytotoxicity rating (0-100), DIGSA ([5]; 63 g ai/ha) | phytotoxicity rating RICE ([19]; 63 g ai/ha)
100: Pre-emerge Herbicidal Activity, phytotoxicity rating (0-100), CHEAL ([1]; 63 g ai/ha) | Pre-emerge Herbicidal Activity, phytotoxicity rating (0-100), CHEAL ([1]; 250 g ai/ha) | Pre-emerge Herbicidal Activity, phytotoxicity rating (0-100), ECHCG ([2]; 250 g ai/ha) | Pre-emerge Herbicidal Activity, phytotoxicity rating (0-100), SETVI ([3]; 63 g ai/ha) | Pre-emerge Herbicidal Activity, phytotoxicity rating (0-100), SETVI ([3]; 250 g ai/ha) | Pre-emerge Herbicidal Activity, phytotoxicity rating (0-100), ABUTH ([4]; 63 g ai/ha) | Pre-emerge Herbicidal Activity, phytotoxicity rating (0-100), ABUTH ([4]; 250 g ai/ha) | Pre-emerge Herbicidal Activity, phytotoxicity rating (0-100), DIGSA ([5]; 250 g ai/ha) | Pre-emerge Herbicidal Activity, phytotoxicity rating (0-100), CASOB ([7]; 63 g ai/ha) | Pre-emerge Herbicidal Activity, phytotoxicity rating (0-100), CASOB ([7]; 250 g ai/ha) | phytotoxicity rating CHEAL ([9]; 63 g ai/ha) | phytotoxicity rating CHEAL ([9]; 250 g ai/ha) | phytotoxicity rating AMARE ([11]; 63 g ai/ha) | phytotoxicity rating AMARE ([11]; 250 g ai/ha) | phytotoxicity rating ABUTH ([13]; 63 g ai/ha) | phytotoxicity rating ABUTH ([13]; 250 g ai/ha) | phytotoxicity rating IPOHE ([15]; 63 g ai/ha) | phytotoxicity rating IPOHE ([15]; 250 g ai/ha) | phytotoxicity rating CASOB ([16]; 63 g ai/ha) | phytotoxicity rating CASOB ([16]; 250 g ai/ha) | Pre-emerge Herbicidal Activity, phytotoxicity rating (0-100), AMARE ([18]; 63 g ai/ha) | Pre-emerge Herbicidal Activity, phytotoxicity rating (0-100), AMARE ([18]; 250 g ai/ha)
30: phytotoxicity rating SETVI ([12]; 63 g ai/ha) | Pre-emerge phytotoxicity rating (0-100), crop damage, RICE ([21]; 63 g ai/ha)
0: phytotoxicity rating DIGSA ([14]; 63 g ai/ha) | Pre-emerge phytotoxicity rating (0-100), crop damage, CORN ([22]; 63 g ai/ha) | Pre-emerge phytotoxicity rating (0-100), crop damage, CORN ([22]; 250 g ai/ha)
60: Pre-emerge Herbicidal Activity, phytotoxicity rating (0-100), IPOHE ([6]; 250 g ai/ha) | Pre-emerge Herbicidal Activity, phytotoxicity rating (0-100), SORHA ([8]; 250 g ai/ha)
